Experimental data as given in ChEMBL document CHEMBL4118205, “Design, synthesis and biological evaluation of artemisinin derivatives containing fluorine atoms as anticancer agents” (Bioorg Med Chem Lett, 2018).
The source made the active and inactive calls. No cut-off for these calls is given here.

How the values were obtained:
[1] = test system: MCF7; experiment: Induction of apoptosis in human MCF7 cells after 48 hrs by Annexin-V FITC/propidium iodide staining based flow cytometry; format: functional, cell-based
[2] = test system: MCF7; experiment: Cell cycle arrest in human MCF7 cells assessed as accumulation at G2 phase at 5 uM after 48 hrs by propidium iodide staining based flow cytometry (reference value: 13.24%); format: functional
[3] = test system: MCF7; experiment: Cell cycle arrest in human MCF7 cells assessed as accumulation at G1 phase at 10 uM after 48 hrs by propidium iodide staining based flow cytometry (reference value: 45.21%); format: functional
[4] = test system: MCF7; experiment: Cell cycle arrest in human MCF7 cells assessed as accumulation at G2 phase at 1 uM after 48 hrs by propidium iodide staining based flow cytometry (reference value: 13.24%); format: functional
[5] = test system: U-87 MG; experiment: Cytotoxicity against human U87 cells assessed as reduction in cell viability after 72 hrs by MTT assay; format: functional, cell-based, U-87MG ATCC
[6] = test system: MCF7; experiment: Induction of apoptosis in human MCF7 cells assessed as necrotic cells at 2.5 uM after 48 hrs by Annexin-V FITC/propidium iodide staining based flow cytometry (reference value: 4.69%); format: functional
[7] = test system: MCF7; experiment: Cell cycle arrest in human MCF7 cells assessed as accumulation at S phase at 2.5 uM after 48 hrs by propidium iodide staining based flow cytometry (reference value: 41.55%); format: functional
[8] = test system: MCF7; experiment: Cell cycle arrest in human MCF7 cells assessed as accumulation at G2 phase at 10 uM after 48 hrs by propidium iodide staining based flow cytometry (reference value: 13.24%); format: functional
[9] = test system: MCF7; experiment: Induction of apoptosis in human MCF7 cells assessed as morphological alteration up to 20 uM after 48 hrs by Hoechst 33258 staining based fluorescence microscopic method; format: functional, cell-based
[10] = test system: MDA-MB-231; experiment: Cytotoxicity against human MDA-MB-231 cells assessed as reduction in cell viability after 72 hrs by MTT assay; format: functional, cell-based; details: MDA-MB-231, 72 h
[11] = test system: MCF7; experiment: Induction of apoptosis in human MCF7 cells assessed as viable cells at 5 uM after 48 hrs by Annexin-V FITC/propidium iodide staining based flow cytometry (reference value: 88.59%); format: functional; details: MCF7, 48 h, read-out: Activity

**Q.** Which Activity [1] does the source give for `C[C@H]1[C@H](N2CCN(C(=O)Nc3ccc(OC(F)(F)F)cc3)CC2)O[C@@H]2O[C@@]3(C)CC[C@H]4[C@H](C)CC[C@@H]1[C@@]24OO3` here?
**A.** Dose-dependent effect

**Q.** What about the Activity [2] of the same compound?
**A.** 7.83%

**Q.** What about the Activity [3] of the same compound?
**A.** 83.5%

**Q.** What about the Activity [4] of the same compound?
**A.** 10.09%

**Q.** What about the IC50 [5] of the same compound?
**A.** 19.7 µM

**Q.** And the Activity [6]?
**A.** 20.85%

**Q.** And the Activity [7]?
**A.** 26.36%

**Q.** And the Activity [8]?
**A.** 7.3%

**Q.** What about the Activity [9] of the same compound?
**A.** Active

**Q.** And the IC50 [10]?
**A.** 8.4 µM

**Q.** What about the viability at 5 µM [11] of the same compound?
**A.** 43.5%
